Results published in US5208145A, “Assay for the presence, in cultured cells, of functional ligand-gated channels, and substances which enhance intracellular lithium accumulation by cultured cells via such channels” (The Salk Institute for Biological Studies, priority 1991, dated 1993).

System: PC12 cells
Conditions: sodium formulated buffer plus 10 μM nicotine, 3H-thymidine incorporation, FIG. 1
Experimental: To subculture, these cells were dislodged from the culture dish by pipetting medium across the culture surface, disassociated by vigorous repeat pipetting, and then distributed to new culture dishes containing fresh media. All cells were maintained at 37° C. in a humidified atmosphere supplemented to 5 percent with CO2.
PC12 cells were distributed to 96 well Costar culture dishes (10^4 cells/well) and the cells were allowed to recover for 24 to 36 hours prior to use. Cells were never allowed to reach confluency. To conduct a lithium-flux experiment, the culture medium was removed and gently replaced with flux-buffer composed of 1.8 mM CaCl2, 25 mM glucose, 10 mM HEPES (pH 7.4), and 115 mM in either sodium chloride or lithium chloride. Each buffer was filter sterilized and supplemented with agonist, antagonist, or both, as described for the experiment being conducted. […] For PC12 cells, culture was then continued as usual for 6 hours before quantitating ^3 H-thymidine incorporation. […]
To determine the incorporation of ^3 H-thymidine into fluxed cells, dishes were frozen at -70°, thawed, and the DNA from each well was collected on glass filters using a Cambridge PhD cell harvester. […] Glass filters were dried, resuspended in Ecolume (ICN) scintillation cocktail, and counted in an LKB Wallace 2010 scintillation counter at 34 percent efficiency.

**Q.** Which “effect of the presence of nicotine on cell cycle time of PC12 cells” value does the source give for `CN1CCCC1c1cccnc1` (stereo not shown) [nicotine] here?
**A.** The value was “does not alter the cell cycle time of PC12 cells”.
